Data on 14 compounds can be found in article PMC11487390, “Design and Synthesis of 1,3-Diarylpyrazoles and Investigation of Their Cytotoxicity and Antiparasitic Profile” (International Journal of Molecular Sciences, 2024).

Data set [1] can be described thus: Cytotoxicity assay, MRC-5SV2 cells, resazurin, 3 days. It is filed as cell-based. Particulars: human, MRC-5SV2 human lung fibroblast cells, MRC-5 cells, highest concentration 64 µM. The protocol: The series of final products (13–69) was investigated in vitro on the human fetal lung fibroblast cell line MRC-5 (Table 1) to assess cytotoxicity toward normal (i.e., non-malignant) human cells. […] As explained earlier, these are important pathogens for humans or cattle (T. b. brucei) and a persistent need for new therapeutics exists for these parasites. As a part of the antiparasitic tests, cytotoxicity against primary mouse macrophages (PMMs) was also evaluated. These murine cells serve as host cells for parasites in the L. infantum assay. Therefore, the murine macrophage assay not only offers additional cytotoxicological insight but is also essential to interpreting the readout of the L. infantum assay.
(§1) The MRC-5SV2 human lung fibroblast cell line was cultured in MEM + Earle’s salts-medium, supplemented with 2 mM L-glutamine, 16.5 mM NaHCO3, and 5% inactivated fetal calf serum. For evaluating the antileishmanial activity, the L. infantum MHOM/MA(BE)/67 strain was used. This strain was maintained in a Golden hamster (Mesocricetus auratus). Amastigotes were collected from the spleen of an infected donor hamster using differential centrifugation. Primary peritoneal mouse macrophages were used as host cells and were collected 2 days after peritoneal stimulation with a 2% potato starch suspension. For the intracellular T. cruzi assays, the Tulahuen CL2 strain was used that expresses β-galactosidase. The strain was maintained in MRC-5SV2 cells in MEM medium. The T. b. brucei Squib 427 strain or T. b. rhodesiense STIB-900 strain was used for screening against the extracellular African trypanosomes. The strains were maintained in Hirumi’s Modified Iscove’s medium-9 (HMI-9), supplemented with 10% inactivated fetal calf serum. All cultures and assays were performed at 37 °C with 5% CO2.
(§2) Compound stock solutions were prepared in 100% DMSO at 20 mM. The compounds were serially pre-diluted by robotic plate production (4-fold) in DMSO followed by a further (intermediate) dilution in demineralized water to assure a final in-test DMSO concentration of <1%. Identical test plates containing 10 µL of the different concentrations of each compound were produced for the different assays. For the cytotoxicity assays, 5 concentrations per compound were tested (64–16–4–1–0.25 µM). For the parasitic assays, 10 concentrations per compound were tested, ranging from 64 µM to 0.2 nM.
Assays were performed in sterile 96-well microtiter plates, each well containing 10 µL of the watery compound dilutions together with 190 µL of MRC-5SV2 inoculum (1.5 × 10^5 cells/mL). Cell growth was compared to untreated control wells (100% cell growth) and medium-control wells (0% cell growth). After 3 days incubation, MRC-5 viability was assessed fluorimetrically after addition of 50 μL resazurin per well (final concentration of 10 µg mL^−1). After 4 h at 37 °C, fluorescence was measured (λex 550 nm, λem 590 nm). The results were expressed as % reduction in cell growth/viability compared to positive (100% growth–0% inhibition) and negative (0% growth–100% inhibition) control wells from which EC50 values (50% effective concentrations) were derived using an excel macro that calculates the interpolation of the concentrations corresponding to the flanking points, just above and just below 50% inhibition.
Background: Alamar Blue is a resazurin reagent that responds to reducing activity.

The subject of data set [2] is Trypanosoma cruzi Tulahuen CL2 strain. In words: Intracellular T. cruzi assay in MRC-5 cells (β-galactosidase/CPRG, 7 days). The class given is cell-based. Particulars: Trypanosoma cruzi, TULAHUEN, MRC5, 168 h, intracellular in MRC-5 cells. The protocol: as §1, §2
MRC-5 cells were infected in 96-well plates using a harvested T. cruzi inoculum (4 × 10^3 MRC-5 cells/well + 4 × 10^4 parasites/well) and exposed to 10 µL of the compound dilutions (200 µL/well total volume). Parasite growth determined after 7 days of incubation and compared to untreated infected controls following the addition of the substrate CPRG (chlorophenolred ß-D-galactopyranoside): 50 µL/well of a stock solution containing 15.2 mg CPRG + 250 µL Nonidet in 100 mL PBS. The absorbance was measured spectrophotometrically at 540 nm after 4 h incubation at 37 °C and EC50 values were calculated.

Data set [3] concerns L. infantum MHOM/MA(BE)/67 strain. As to the kind of experiment: L. infantum intracellular amastigote assay in PMM (Giemsa, 5 days). It is filed as cell-based, Leishmania infantum. The protocol:
as §1, §2
Primary peritoneal mouse macrophages (PMMs) were prepared in RPMI-1640 medium, supplemented with 2 mM L-glutamine, 16.5 mM NaHCO3, and 5% inactivated fetal calf serum. The macrophages are infected after 48 h with spleen-derived L. infantum amastigotes (3 × 10^4 PMM + 4.5 × 10^5 parasites/well). The compounds were added after 2 h of infection. After 5 days incubation, parasite burdens (mean number of amastigotes/macrophage) were assessed microscopically after staining with a 10% Giemsa solution and EC50 values were calculated.

Data set [4] relates to T. b. brucei Squib 427 strain. As to the kind of experiment: T. b. brucei growth assay (resazurin, 3 days). Particulars: Trypanosoma brucei, 72 h. The class given is cell-based, Trypanosoma brucei brucei. The protocol:
as §1, §2
(§3) Parasite suspensions (1.5 × 10^4 T. b. brucei/well or 4 × 10^3 T. b. rhodesiense/well) in HMI-9 medium were exposed in a total volume of 200 µL to 10 µL of the compound dilutions Parasite growth was assessed fluorimetrically after 3 days of incubation by the addition of 50 µL resazurin per well. After 6 h (T. b. rhodesiense) or 24 h (T. b. brucei) at 37 °C, fluorescence was measured (λex 550 nm, λem 590 nm), from which viability and EC50 values could be determined.

The subject of data set [5] is T. b. rhodesiense STIB-900 strain. As to the kind of experiment: T. b. rhodesiense growth assay (resazurin, 3 days). It is filed as cell-based, Trypanosoma brucei rhodesiense. The following applies: Trypanosoma brucei, RHODESIENSE, 72 h. How it is done: as §1, §2, §3
Setting [6] is: Leishmania infantum, 120 h, read-out: L. inf. (EC50, µM), amastigotes in PMM, 5 days.
Setting [7] is: read-out: T. b. bruc. (EC50, µM), 3 days.
Setting [8] is: read-out: T. b. rhod. (EC50, µM), 3 days.
The mark [9] stands for this setting: Leishmania infantum, 120 h, amastigotes in PMM, 5 days, read-out: L. inf. (EC50).
The mark [10] stands for this setting: 3 days, read-out: T. b. bruc. (EC50).
Where [11] appears, read: 3 days, read-out: T. b. rhod. (EC50).

Where a name gives a salt, the structure may show the parent alone. Read-outs that look alike come from different tables or passages of the source.

Broadly, the EC50 is the concentration at which the effect is half-maximal. In data set [1], `O=C(NCCN1CCOCC1)c1cn(-c2ccccc2)nc1-c1ccc2c(c1)OCCO2` [Compound 44, 3-(2,3-dihydrobenzo[b][1,4]dioxin-6-yl)-N-(2-morpholinoethyl)-1-phenyl-1H-pyrazole-4-carboxamide hydrochloride] yielded a 50% effective concentration (EC50) at 3 days of over 64 µM. For the same compound, the EC50 is 64 µM in data set [2]; 9.51 µM in data set [3] (setting [6]); 8.3 µM in data set [3] (read-out: L. inf. (EC50), amastigotes in PMM, 5 days); over 64 µM in data set [4] (setting [7]); 19 µM in data set [5] (setting [8]).
Turning to `Fc1ccc(COCc2cn(-c3ccccc3)nc2-c2ccc3c(c2)OCCO3)cc1` [Compound 45, 3-(2,3-dihydrobenzo[b][1,4]dioxin-6-yl)-4-(((4-fluorobenzyl)oxy)methyl)-1-phenyl-1H-pyrazole], the EC50 at 3 days in data set [1] was over 64 µM. The EC50 amounted to 5.51 µM in data set [2], 22.6 µM in data set [3] (setting [9]), 27.2 µM in data set [4] (setting [10]) and 7.16 µM in data set [5] (setting [11]).
Taken in the same sequence, the figures for `c1ccc(-n2cc(COCc3cn(-c4ccccc4)nc3-c3ccc4c(c3)OCCO4)nn2)cc1` [Compound 46, 4-(((3-(2,3-dihydrobenzo[b][1,4]dioxin-6-yl)-1-phenyl-1H-pyrazol-4-yl)methoxy)methyl)-1-phenyl-1H-1,2,3-triazole] were over 64 µM, over 64 µM, 32.5 µM, 9.04 µM and 2.18 µM.
As to `Fc1ccc(-n2cc(COCc3cn(-c4ccccc4)nc3-c3ccc4c(c3)OCCO4)nn2)cc1` [Compound 47, 4-(((3-(2,3-dihydrobenzo[b][1,4]dioxin-6-yl)-1-phenyl-1H-pyrazol-4-yl)methoxy)methyl)-1-(4-fluorophenyl)-1H-1,2,3-triazole], in data set [1], a half-maximal effect (EC50 at 3 days) was put at 51.5 µM. For the same compound, the EC50 in data set [2] was 64 µM; in data set [3] (setting [9]) it was over 64 µM; in data set [4] (setting [10]) it was 55.9 µM; in data set [5] (setting [11]) it was 5.56 µM.
Compound `c1ccc(Cn2cc(COCc3cn(-c4ccccc4)nc3-c3ccc4c(c3)OCCO4)nn2)cc1` [Compound 48, 1-benzyl-4-(((3-(2,3-dihydrobenzo[b][1,4]dioxin-6-yl)-1-phenyl-1H-pyrazol-4-yl)methoxy)methyl)-1H-1,2,3-triazole] yielded a half-maximal effective concentration (EC50) at 3 days in data set [1] of over 64 µM. Further, the EC50 is over 64 µM in data set [2], 32.5 µM in data set [3] (setting [9]), over 64 µM in data set [4] (setting [10]) and 1.78 µM in data set [5] (setting [11]).
`c1ccc(Cc2cn(-c3ccccc3)nc2-c2ccc3c(c2)OCCO3)cc1` [Compound 49, 4-benzyl-3-(2,3-dihydrobenzo[b][1,4]dioxin-6-yl)-1-phenyl-1H-pyrazole] showed an EC50 at 3 days in data set [1] of 59.5 µM. In addition, the EC50 in data set [2] is 7.35 µM; in data set [3] (setting [9]) it was 38.1 µM; in data set [4] (setting [10]), 29.3 µM; in data set [5] (setting [11]) it was 16.5 µM.
As to `Clc1ccc(Cc2cn(-c3ccccc3)nc2-c2ccc3c(c2)OCCO3)cc1` [Compound 50, 4-(4-chlorobenzyl)-3-(2,3-dihydrobenzo[b][1,4]dioxin-6-yl)-1-phenyl-1H-pyrazole], the EC50 at 3 days in data set [1] is over 64 µM. Further, the EC50 was 7.53 µM in data set [2], 12.7 µM in data set [3] (setting [9]), 27.2 µM in data set [4] (setting [10]) and 8.52 µM in data set [5] (setting [11]).
In turn, `FCc1cn(-c2ccccc2)nc1-c1ccc2c(c1)OCCO2` [Compound 52, 3-(2,3-dihydrobenzo[b][1,4]dioxin-6-yl)-4-(fluoromethyl)-1-phenyl-1H-pyrazole] showed an EC50 at 3 days in data set [1] of 22.6 µM. Further, the EC50 in data set [2] was 23.9 µM; in data set [3] (setting [9]) it was over 64 µM; in data set [4] (setting [10]), over 64 µM; in data set [5] (setting [11]), 27.1 µM.
In data set [1], `FC(F)c1cn(-c2ccccc2)nc1-c1ccc2c(c1)OCCO2` [Compound 53, 4-(difluoromethyl)-3-(2,3-dihydrobenzo[b][1,4]dioxin-6-yl)-1-phenyl-1H-pyrazole] gave an EC50 at 3 days of 21.8 µM. In addition, the EC50 in data set [2] was determined as 6.44 µM; in data set [3] (setting [9]), 32.5 µM; in data set [4] (setting [10]), 30.3 µM; in data set [5] (setting [11]) it was 19 µM.
`O=C(NCc1cn(-c2ccccc2)nc1-c1ccc2c(c1)OCCO2)Nc1ccc(F)cc1` [Compound 54, 1-((3-(2,3-dihydrobenzo[b][1,4]dioxin-6-yl)-1-phenyl-1H-pyrazol-4-yl)methyl)-3-(4-fluorophenyl)urea] came in with an EC50 at 3 days in data set [1] of over 64 µM. The EC50 in data set [2], in data set [3] (setting [9]), in data set [4] (setting [10]) and in data set [5] (setting [11]) was over 64 µM in each case.
`c1ccc(-n2cc(CNCCc3ccccn3)c(-c3ccc4c(c3)OCO4)n2)cc1` [Compound 59, N-((3-(benzo[d] [1,3]dioxol-5-yl)-1-phenyl-1H-pyrazol-4-yl)methyl)-2-(pyridin-2-yl)ethan-1-amine hydrochloride] registered an EC50 at 3 days in data set [1] of 26.6 µM. For the same compound, the EC50 in data set [2] came to 6.71 µM; in data set [3] (setting [6]) it was 8.06 µM; in data set [4] (setting [7]), 1.64 µM; in data set [5] (setting [8]) it was 1.61 µM.
Consider `CNC(=O)c1cc(Oc2ccc(NCc3cn(-c4ccccc4)nc3-c3ccc4c(c3)OCO4)cc2)ccn1` [Compound 60, 4-(4-(((3-(benzo[d] [1,3]dioxol-5-yl)-1-phenyl-1H-pyrazol-4-yl)methyl)amino)phenoxy)-N-methylpicolinamide], for which the EC50 at 3 days in data set [1] turned out to be 60.7 µM. Further, the EC50 is over 64 µM in data set [2], 32.5 µM in data set [3] (setting [9]), over 64 µM in data set [4] (setting [10]) and 5.18 µM in data set [5] (setting [11]).
On to `COc1ccc(-c2nn(-c3ccccc3)cc2CNCCc2ccccn2)cc1` [Compound 64, N-((3-(4-methoxyphenyl)-1-phenyl-1H-pyrazol-4-yl)methyl)-2-(pyridin-2-yl)ethan-1-amine hydrochloride], for which, in data set [1], the EC50 at 3 days is 28.9 µM. The EC50 in data set [2] is 7.15 µM; in data set [3] (setting [6]), 8.06 µM; in data set [4] (setting [7]) it was 1.7 µM; in data set [5] (setting [8]) it was 1.57 µM.
`COc1ccc(-c2nn(-c3ccccc3)cc2CN2CCCC2)cc1` [Compound 65, 3-(4-methoxyphenyl)-1-phenyl-4-(pyrrolidin-1-ylmethyl)-1H-pyrazole oxalate]: the concentration for a half-maximal effect (EC50) at 3 days in data set [1] was 32 µM. For the same compound, the EC50 in data set [2] worked out at 28.9 µM; in data set [3] (setting [9]), 33.2 µM; in data set [4] (setting [10]) it was 6.87 µM; in data set [5] (setting [11]) it was 6.43 µM.
